Assay results reported in paper PMC6912803, “Sideritis Perfoliata (Subsp. Perfoliata) Nutritive Value and Its Potential Medicinal Properties” (Antioxidants, 2019).

Key:
mushroom tyrosinase = test system: T1, mushroom tyrosinase; assay: L-tyrosine oxidation, absorbance at […] nm over […] min; assay type: biochemical; design: reference not given here; conditions: 2 mM L-tyrosine stock (110 µL added), potassium phosphate pH 6.5, room temperature, 5 min preincubation
T1 construct: gene PPO3; native commercial mushroom tyrosinase (Sigma-Aldrich), isoenzyme mixture

[1] = target: T2, Porcine pancreatic elastase (PPE) (Sus scrofa, UniProt P00772); assay: N-succinyl-(Ala)3-p-nitroanilide hydrolysis, absorbance at […] nm; assay type: biochemical; conditions: read-out: Positive Control MIC/IC50 ± SD (μg/mL) (converted)
T2 construct: gene CELA1; mature active protease
T2 sequence (P00772 27-266): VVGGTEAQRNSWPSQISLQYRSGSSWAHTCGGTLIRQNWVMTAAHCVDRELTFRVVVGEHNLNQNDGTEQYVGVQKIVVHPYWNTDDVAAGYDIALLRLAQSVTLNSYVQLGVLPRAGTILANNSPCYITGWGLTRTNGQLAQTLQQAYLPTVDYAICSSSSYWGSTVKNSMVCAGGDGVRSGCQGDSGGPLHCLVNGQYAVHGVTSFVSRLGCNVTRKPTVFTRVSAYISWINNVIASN

For `O=c1cc(CO)occ1O` [kojic acid], the “Positive Control MIC/IC50 ± SD” value (mushroom tyrosinase) was 2.84 ± 0.23 µg/mL.
Work on `C[C@H]1[C@H](C)CC[C@]2(C(=O)O)CC[C@]3(C)C(=CC[C@@H]4[C@@]5(C)CC[C@H](O)C(C)(C)[C@@H]5CC[C@]43C)[C@H]12` [ursolic acid] yielded an IC50 [1] of 40.4 µM.
